Several values for one entry are separate records, joined by “and”; a condition that tells them apart may be missing. Identical values can stand only once. Inconclusive results and toxic doses are left out. No stated cut-off is given here; in the data, active means T/C of 150% or more; inactive means T/C below 125%.
Test system: L1210 leukemia ip in BDF1 mice, survival T/C
Test: NCI In Vivo Anticancer Drug Screen. Data for tumor model L1210 Leukemia (intraperitoneal) in B6D2F1 (BDF1) mice
Details: endpoint: mean survival time, higher = longer survival
In short: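 Transplantable tumor model; survival measured in treated vs vehicle control mice. Value = treated/control.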

[1] = dose: 100.0 mg/kg/injection, schedule: Q01DX009 (ip), vehicle: saline
[2] = dose: 100.0 mg/kg/injection, schedule: Q04DX003 (ip), vehicle: carboxymethylcellulose (CMC)
[3] = dose: 200.0 mg/kg/injection, schedule: Q04DX003 (ip), vehicle: carboxymethylcellulose (CMC)
[4] = dose: 100.0 mg/kg/injection, schedule: Q01DX009 (ip), vehicle: saline with Tween-80
[5] = dose: 200.0 mg/kg/injection, schedule: Q01DX009 (ip), vehicle: saline with Tween-80
[6] = dose: 100.0 mg/kg/injection, schedule: Q04DX003 (ip), vehicle: saline with Tween-80
[7] = dose: 100.0 mg/kg/injection, schedule: Q01DX001 (ip), vehicle: saline with Tween-80
[8] = dose: 200.0 mg/kg/injection, schedule: Q01DX001 (ip), vehicle: saline with Tween-80
[9] = dose: 200.0 mg/kg/injection, schedule: Q04DX003 (ip), vehicle: saline with Tween-80
[10] = dose: 400.0 mg/kg/injection, schedule: Q01DX001 (ip), vehicle: saline with Tween-80
[11] = dose: 400.0 mg/kg/injection, schedule: Q04DX003 (ip), vehicle: saline with Tween-80

Measured: T/C

CC(=O)OC(C)(C)/C=C/C(=O)[C@](C)(O)[C@H]1[C@H](O)C[C@@]2(C)[C@@H]3CC=C4[C@@H](C[C@H](O)C(=O)C4(C)C)[C@]3(C)C(=O)C[C@]12C
inactive: dose: 0.12 mg/kg/injection, schedule: Q01DX009 (ip), vehicle: saline 88 % of control | dose: 0.12 mg/kg/injection, schedule: Q04DX003 (ip), vehicle: saline 98 % of control | dose: 0.16 mg/kg/injection, schedule: Q01DX Z (ip), vehicle: saline 100 % of control | dose: 0.25 mg/kg/injection, schedule: Q01DX001 (ip), vehicle: saline 92 % of control | dose: 0.25 mg/kg/injection, schedule: Q01DX009 (ip), vehicle: saline 100 % of control | dose: 0.25 mg/kg/injection, schedule: Q01DX Z (ip), vehicle: saline 113 % of control | dose: 0.25 mg/kg/injection, schedule: Q04DX003 (ip), vehicle: saline 102 % of control | dose: 0.38 mg/kg/injection, schedule: Q01DX Z (ip), vehicle: saline 103 % of control | dose: 0.4 mg/kg/injection, schedule: Q01DX Z (ip), vehicle: carboxymethylcellulose (CMC) 93 % of control and 103 % of control | dose: 0.5 mg/kg/injection, schedule: Q01DX001 (ip), vehicle: saline 98 % of control | dose: 0.5 mg/kg/injection, schedule: Q01DX009 (ip), vehicle: saline 103 % of control | dose: 0.5 mg/kg/injection, schedule: Q04DX003 (ip), vehicle: saline 106 % of control | dose: 0.57 mg/kg/injection, schedule: Q01DX Z (ip), vehicle: saline 103 % of control | dose: 0.8 mg/kg/injection, schedule: Q01DX Z (ip), vehicle: carboxymethylcellulose (CMC) 108 % of control

O=C(Nc1cccc(NC(=O)Nc2cccc(C3=NCCN3)c2)c1)Nc1cccc(C2=NCCN2)c1
active: dose: 27.0 mg/kg/injection, schedule: Q01DX Z (ip), vehicle: carboxymethylcellulose (CMC) 156 % of control
inactive: dose: 16.4 mg/kg/injection, schedule: Q01DX Z (ip), vehicle: carboxymethylcellulose (CMC) 121 % of control | dose: 37.0 mg/kg/injection, schedule: Q01DX Z (ip), vehicle: carboxymethylcellulose (CMC) 121 % of control | dose: 55.5 mg/kg/injection, schedule: Q01DX Z (ip), vehicle: carboxymethylcellulose (CMC) 123 % of control | dose: 66.0 mg/kg/injection, schedule: Q01DX Z (ip), vehicle: carboxymethylcellulose (CMC) 107 % of control | dose: 83.3 mg/kg/injection, schedule: Q01DX Z (ip), vehicle: carboxymethylcellulose (CMC) 121 % of control | dose: 90.0 mg/kg/injection, schedule: Q01DX Z (ip), vehicle: saline 107 % of control | dose: 125.0 mg/kg/injection, schedule: Q01DX Z (ip), vehicle: carboxymethylcellulose (CMC) 101 % of control | dose: 187.5 mg/kg/injection, schedule: Q01DX Z (ip), vehicle: carboxymethylcellulose (CMC) 104 % of control

C[P+]1(C)CC2OC23CCCCC31 (centres undefined)
inactive: dose: 12.5 mg/kg/injection, schedule: Q01DX009 (ip), vehicle: saline 98 % of control | dose: 25.0 mg/kg/injection, schedule: Q01DX009 (ip), vehicle: saline 93 % of control | dose: 50.0 mg/kg/injection, schedule: Q01DX009 (ip), vehicle: saline 94 % of control | [1] 96 % of control

CCCCOP(=O)(/C=C\c1ccccn1)OCCCC
inactive: dose: 50.0 mg/kg/injection, schedule: Q01DX009 (ip), vehicle: carboxymethylcellulose (CMC) 95 % of control and 97 % of control | dose: 50.0 mg/kg/injection, schedule: Q04DX003 (ip), vehicle: carboxymethylcellulose (CMC) 96 % of control | dose: 100.0 mg/kg/injection, schedule: Q01DX009 (ip), vehicle: carboxymethylcellulose (CMC) 94 % of control and 101 % of control | dose: 100.0 mg/kg/injection, schedule: Q04DX002 (ip), vehicle: carboxymethylcellulose (CMC) 100 % of control and 102 % of control | [2] 108 % of control | dose: 200.0 mg/kg/injection, schedule: Q01DX009 (ip), vehicle: carboxymethylcellulose (CMC) 102 % of control and 117 % of control | dose: 200.0 mg/kg/injection, schedule: Q04DX002 (ip), vehicle: carboxymethylcellulose (CMC) 106 % of control and 91 % of control | [3] 102 % of control

CN(C)CSc1nc2ccccc2s1
inactive: dose: 50.0 mg/kg/injection, schedule: Q01DX009 (ip), vehicle: saline with Tween-80 93 % of control | [4] 89 % of control | [5] 93 % of control

O=C(O)CCC(=O)c1ccc2c(c1)CCCC2
inactive: dose: 3.13 mg/kg/injection, schedule: Q01DX009 (ip), vehicle: saline with Tween-80 95 % of control | dose: 6.25 mg/kg/injection, schedule: Q01DX009 (ip), vehicle: saline with Tween-80 92 % of control | dose: 12.5 mg/kg/injection, schedule: Q01DX009 (ip), vehicle: saline with Tween-80 93 % of control

COC(=O)/C=C\C(=O)NC(C)(C)CC(C)(C)C
inactive: dose: 50.0 mg/kg/injection, schedule: Q01DX001 (ip), vehicle: carboxymethylcellulose (CMC) 100 % of control | dose: 100.0 mg/kg/injection, schedule: Q01DX001 (ip), vehicle: carboxymethylcellulose (CMC) 105 % of control | dose: 200.0 mg/kg/injection, schedule: Q01DX001 (ip), vehicle: carboxymethylcellulose (CMC) 105 % of control | dose: 400.0 mg/kg/injection, schedule: Q01DX001 (ip), vehicle: carboxymethylcellulose (CMC) 96 % of control

NNC(=O)C1C2CCCCC21 (centres undefined)
inactive: [6] 107 % of control

CC(O)C(O)C(O)C(O)C(c1ccc(Cl)cc1)c1ccc(Cl)cc1 (centres undefined)
inactive: dose: 50.0 mg/kg/injection, schedule: Q01DX001 (ip), vehicle: saline 104 % of control | dose: 100.0 mg/kg/injection, schedule: Q01DX001 (ip), vehicle: saline 98 % of control

Nc1ccnc2n[nH]nc12
inactive: [7] 111 % of control | [6] 101 % of control | [8] 110 % of control | [9] 100 % of control | [10] 104 % of control | [11] 103 % of control

O=C(Oc1ccc(S(=O)(=O)F)cc1Cl)c1ccccc1Cl
inactive: [2] 98 % of control | [3] 95 % of control | dose: 400.0 mg/kg/injection, schedule: Q04DX003 (ip), vehicle: carboxymethylcellulose (CMC) 104 % of control

OC1C(O)C(O)C(O)C(O)C1O (centres undefined)
inactive: [1] 97 % of control | [6] 104 % of control | dose: 100.0 mg/kg/injection, schedule: Q04DX003 (ip), vehicle: saline 98 % of control | dose: 200.0 mg/kg/injection, schedule: Q01DX009 (ip), vehicle: saline 92 % of control | [9] 98 % of control | dose: 200.0 mg/kg/injection, schedule: Q04DX003 (ip), vehicle: saline 98 % of control | dose: 375.0 mg/kg/injection, schedule: Q01DX001 (ip), vehicle: carboxymethylcellulose (CMC) 100 % of control | dose: 400.0 mg/kg/injection, schedule: Q01DX009 (ip), vehicle: saline 97 % of control | [11] 98 % of control | dose: 400.0 mg/kg/injection, schedule: Q04DX003 (ip), vehicle: saline 107 % of control | dose: 750.0 mg/kg/injection, schedule: Q01DX001 (ip), vehicle: carboxymethylcellulose (CMC) 98 % of control | dose: 1500.0 mg/kg/injection, schedule: Q01DX001 (ip), vehicle: carboxymethylcellulose (CMC) 98 % of control

O=C1C=C(NNc2ccccc2)CCC1
inactive: dose: 75.0 mg/kg/injection, schedule: Q01DX001 (ip), vehicle: steriod suspending solution 92 % of control | dose: 150.0 mg/kg/injection, schedule: Q01DX001 (ip), vehicle: steriod suspending solution 95 % of control | dose: 300.0 mg/kg/injection, schedule: Q01DX001 (ip), vehicle: steriod suspending solution 92 % of control

Nc1ccc(Nc2ccc([N+](=O)[O-])cc2)cc1
inactive: dose: 75.0 mg/kg/injection, schedule: Q01DX009 (ip), vehicle: Klucel (hydroxypropylcellulose) (HPC) 91 % of control | dose: 150.0 mg/kg/injection, schedule: Q01DX009 (ip), vehicle: Klucel (hydroxypropylcellulose) (HPC) 105 % of control | dose: 300.0 mg/kg/injection, schedule: Q01DX009 (ip), vehicle: Klucel (hydroxypropylcellulose) (HPC) 100 % of control

Cc1ccc(S(=O)NOCCCCONS(=O)c2ccc(C)cc2)cc1 (centres undefined)
inactive: [7] 98 % of control | [4] 100 % of control and 89 % of control | dose: 100.0 mg/kg/injection, schedule: Q04DX002 (ip), vehicle: saline with Tween-80 96 % of control and 91 % of control | [8] 95 % of control | [5] 86 % of control and 87 % of control | dose: 200.0 mg/kg/injection, schedule: Q04DX002 (ip), vehicle: saline with Tween-80 93 % of control and 98 % of control | [10] 106 % of control | dose: 400.0 mg/kg/injection, schedule: Q01DX009 (ip), vehicle: saline with Tween-80 90 % of control | dose: 400.0 mg/kg/injection, schedule: Q04DX002 (ip), vehicle: saline with Tween-80 104 % of control and 105 % of control
